According to US4065354A, “Lysozyme conjugates for enzyme immunoassays” (priority 1975, dated 1977):

Legend:
[1] = test system: morphine antibodies; assay: homogeneous enzyme immunoassay with morphine conjugate to lysozyme, cross-reactivity
[2] = test system: amphetamine antibody; assay: amphetamine lysozyme conjugate enzyme immunoassay, cross-reactivity; assay type: binding; conditions: related to 1μg/ml amphetamine; 50μl of urine
Protocol: The next drug to be considered is amphetamine. Again, the same procedure is employed for lysozyme as for the prior assays, except that 50μl of urine is employed. The relative reactivity is related to 1μg/ml amphetamine.

[3] = test system: methadone antibody; assay: methadone lysozyme conjugate enzyme immunoassay (sensitivity, cross-reactivity); conditions: relative to methadone at 0.5μg/ml; ratio of concentrations giving the same optical density reading
[4] = test system: morphine antibodies; assay: inhibition of Example 2 morphine-lysozyme conjugate by antibody and recovery by morphine; assay type: biochemical
[5] = test system: thyroxine antibodies; assay: activity of thyroxine-lysozyme conjugate (Example 17), inhibition by antibody, return by thyroxine; assay type: biochemical
[6] = compound concentration 0.3 μg/ml
[7] = compound concentration 300 μg/ml

CN1CC[C@]23c4c5ccc(O)c4O[C@H]2[C@@H](O)C=C[C@H]3[C@H]1C5 [Morphine]
Percent max. rate [1, 6]: 5%
Percent max. rate ([1]; compound concentration 3 μg/ml): 67%

NCCc1ccccc1 [Phenethylamine]
Relative Reactivity [2]: 0.2

Hydromorphine
Percent max. rate [1, 6]: 6%
Percent max. rate ([1]; compound concentration 3 μg/ml): 55%

CC(N)C(O)c1ccccc1 (stereo not drawn) [Phenylpropanolamine]
Relative Reactivity [2]: 0.33

COc1ccc2c(c1)[C@]13CCCC[C@@H]1[C@H](C2)N(C)CC3 [Dextromethorphan]
Relative Reactivity [3]: 0.0042

CC(CCc1ccccc1)NC(C)C(O)c1ccc(O)cc1 (stereo not drawn) [Nylidrin]
Relative Reactivity [2]: 0.27

CC(CN1c2ccccc2Sc2ccccc21)N(C)C (stereo not drawn) [Phenergan]
Relative Reactivity [3]: 0.0125

Morphine glucuronide
Percent max. rate [1, 6]: 4%
Percent max. rate ([1]; compound concentration 10 μg/ml (2.1 × 10^-5 M)): 77%

2: 0^3 -methoxyimidoylmethylmorphine conjugated to lysozyme [Example 2]
recovery of enzyme activity upon addition of aqueous morphine ([4]; antibody-inhibited conjugate): full recovery of activity
inhibition of conjugate enzyme activity by morphine antibodies ([4]; dialysate of Example 2): could be inhibited by morphine antibodies

COc1ccc2c3c1O[C@H]1[C@@H](O)C=C[C@H]4[C@@H](C2)N(C)CC[C@@]341 [Codeine]
Percent max. rate [1, 6]: 7%
Percent max. rate ([1]; compound concentration 3 μg/ml): 90%

CC(N)Cc1ccccc1 (stereo not drawn) [Amphetamine]
Relative Reactivity [2]: 1

CCC(=O)O[C@](Cc1ccccc1)(c1ccccc1)[C@H](C)CN(C)C [Dextropropoxyphene]
Relative Reactivity [3]: 0.00089

CCC(=O)O[C@](Cc1ccccc1)(c1ccccc1)[C@H](C)CN(C)C [Darvon]
Percent max. rate [1, 7]: 4%

CCC1(c2ccccc2)C(=O)NC(=O)NC1=O [Phenobarbital]
Percent max. rate [1, 7]: 0%

CCC(=O)C(CC(C)N(C)C)(c1ccccc1)c1ccccc1 (stereo not drawn) [Methadone]
Percent max. rate ([1]; compound concentration 30 μg/ml (8.7 × 10^-5 M)): 1%
Relative Reactivity [3]: 1

COC(=O)[C@H]1[C@@H](OC(=O)c2ccccc2)C[C@@H]2CC[C@H]1N2C [Cocaine]
Percent max. rate [1, 7]: 2%

CNC(C)CC1CCCCC1 (stereo not drawn) [Propylhexedrine]
Relative Reactivity [2]: 0.05

CNC(C)CC1CCCC1 (stereo not drawn) [Cyclopentamine]
Relative Reactivity [2]: 0.33

CN(C)CCCN1c2ccccc2Sc2ccc(Cl)cc21 [Chlorpromazine]
Relative Reactivity [3]: 0.011

CNC(C)(C)Cc1ccccc1 [Mephentermine]
Relative Reactivity [2]: 0.62

CC(C)=CCN1CCC2(C)c3cc(O)ccc3CC1C2C (stereo not drawn) [Pentazocine]
Percent max. rate [1, 7]: 3%

CN(C)CCCN1c2ccccc2Sc2ccc(Cl)cc21 [Thorazine]
Percent max. rate ([1]; compound concentration 35 μg/ml (9.9 × 10^-5 M)): 6%

CC(N)Cc1ccc(O)cc1 (stereo not drawn) [p-Hydroxyamphetamine]
Relative Reactivity [2]: 0.022

CC(C)(N)Cc1ccccc1 [phentermine]
Relative Reactivity [2]: 0.62

17: thyroxine methyl ester diglycolic acid derivative conjugated to lysozyme [Example 17]
inhibition by thyroxine antibodies [5]: could be inhibited by thyroxine antibodies
activity after addition of thyroxine ([5]; antibody-inhibited conjugate): activity returned by the addition of thyroxine
enzyme activity of the conjugate ([5]; product after dialysis and centrifugation): active

CN[C@@H](C)[C@H](O)c1ccccc1 [Ephedrine]
Relative Reactivity [2]: 0.22

CC(COc1ccccc1)NC(C)C(O)c1ccc(O)cc1 (stereo not drawn) [Isoxsuprine]
Relative Reactivity [2]: 0.2

CN[C@@H](C)Cc1ccccc1 [Methamphetamine]
Relative Reactivity [2]: 1.1
